One test deals with A549. Description: A549 wound healing inhibition (HGF dependent migration). In kind it is cell-based. The conditions noted are these: Homo sapiens, A549 cells, read-out: A549 WOUND HEALING INHIB IC50. From the text:
(§1) HGF has well known activity in terms of inducing scattering and migration (wound healing) (Wells et al., Cell Motil Cytoskeleton. 2005 November 62(3):180-94; Miura et al., Urology 2001 December 58(6):1064-9; Nishimura et al., Int J Urol. 1998 May 5(3):276-81; Wang et al., Mol Cancer Ther. 2003 November; 2(11):1085-92; and Christensen et al., Cancer Res. 2003 Nov. 1; 63(21):7345-55).

For the next test, the system named is DU145. The experiment in a line: DU145 scattering inhibition (HGF dependent scattering). In kind it is cell-based. The conditions noted are these: Homo sapiens.
Description: as §1

The target of test [1] is T1, recombinant human c-Met/HGF receptor (Homo sapiens, UniProt P08581).
T1 construct: His tag (pBlueBacHis2A vector); made in house; host or cells: Hi-5 cells (Trichoplusia ni), baculovirus
Description: In vitro receptor tyrosine kinase assay (DELFIA), c-Met/HGF receptor. In kind it is biochemical. The conditions noted are these: read-out: CMET IC50. The procedure:
Cell pellets were frozen at −80° C. until purification was performed.
(§2) The coated plates were washed and stored at 4° C. […] After incubation, the kinase reactions were quenched with EDTA and the plates were washed.

The target in a further test is T2, VEGF receptor KDR (Homo sapiens, UniProt P35968).
T2 construct: made in house; host or cells: Sf9 cells (Spodoptera frugiperda), baculovirus
The experiment in a line: In vitro receptor tyrosine kinase assay (DELFIA), VEGF receptor KDR. The conditions noted are these: read-out: VEGFR IC50. In kind it is biochemical. How it is done:
In the case of VEGF receptor KDR a 1.6-kb cDNA corresponding to the catalytic domain of VEGFR2 or KDR (Genbank accession number AF035121 amino acid 806 to 1356) was cloned into the Pst I site of the pDEST20 Gateway vector (Invitrogen) for the production of a GST-tagged version of that enzyme.
The GST-VEGFR2806-1356 protein was expressed in […] (Spodoptera frugiperda) upon infection with recombinant baculovirus construct. […] Cell pellets were frozen at −80° C. until purification was performed.
The supernatant (cell extract) was used as starting material for purification of GST-VEGFR2806-1356.
The supernatant was loaded onto a GST-agarose column (Sigma) equilibrated with PBS pH 7.3. Following a four column volume (CV) wash with PBS pH 7.3+1% Triton X-100 and 4 CV wash with buffer B (50 mM Tris pH 8.0, 20% glycerol and 100 mM NaCl), bound proteins were step eluted with 5 CV of buffer B supplemented with 5 mM DTT and 15 mM glutathion. GST-VEGFR2806-1356 enriched fractions from this chromatography step were pooled based on U.V. trace i.e. fractions with high O.D.280. Final GST-VEGFR2806-1356 protein preparations concentrations were about 0.7 mg/ml with purity approximating 70%.
as §2

Where [2] appears, read: DU-145, HGF dependent scattering, DU145 cells, read-out: DU145 SCATTERING INHIB IC50.
[3] abbreviates: DU-145, read-out: DU145 […] IC50.

pIC50: −log10 of the molar value. Like-named read-outs stand apart in the source and are kept apart here. A value given as a limit tells only on which side of the number the result lay.

T1 sequence (P08581 1078-1337): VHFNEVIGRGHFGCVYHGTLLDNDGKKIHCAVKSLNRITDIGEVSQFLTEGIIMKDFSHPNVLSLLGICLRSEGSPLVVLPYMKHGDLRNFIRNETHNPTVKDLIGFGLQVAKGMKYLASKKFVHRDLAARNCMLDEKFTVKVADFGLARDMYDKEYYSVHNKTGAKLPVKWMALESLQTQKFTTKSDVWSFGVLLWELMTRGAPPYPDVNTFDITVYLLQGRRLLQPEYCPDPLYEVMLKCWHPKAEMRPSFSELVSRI
T2 sequence (P35968 806-1356): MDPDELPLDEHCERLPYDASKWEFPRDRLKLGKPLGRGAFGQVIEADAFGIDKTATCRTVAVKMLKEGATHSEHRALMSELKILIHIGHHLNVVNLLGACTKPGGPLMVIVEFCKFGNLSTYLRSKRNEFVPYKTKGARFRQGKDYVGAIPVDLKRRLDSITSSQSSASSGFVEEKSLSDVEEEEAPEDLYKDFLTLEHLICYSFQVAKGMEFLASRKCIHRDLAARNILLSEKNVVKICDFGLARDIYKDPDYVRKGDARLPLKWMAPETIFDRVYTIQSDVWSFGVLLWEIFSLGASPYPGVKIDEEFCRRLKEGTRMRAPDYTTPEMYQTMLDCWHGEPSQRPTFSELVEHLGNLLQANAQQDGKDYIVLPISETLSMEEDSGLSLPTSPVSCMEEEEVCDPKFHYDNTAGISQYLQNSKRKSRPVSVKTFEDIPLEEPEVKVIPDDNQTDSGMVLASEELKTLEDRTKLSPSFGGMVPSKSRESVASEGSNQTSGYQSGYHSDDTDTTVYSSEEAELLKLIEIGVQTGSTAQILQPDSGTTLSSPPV

In general, pIC50 refers to the IC50 on a negative log10 scale, so that one unit is a factor of ten. As to `Cn1ccnc1-c1cc2nccc(Oc3ccc(NC(=O)CC(=O)OC4CCNCC4)cc3F)c2s1`, the pIC50 in the test on A549 is below 5.00; with DU145 (setting [2]), below 5.00; in test [1] it was below 6.30; on VEGF receptor KDR, below 6.30.
Regarding `Cn1cncc1-c1cc2nccc(Oc3ccc(NC(=O)CC(=O)Nc4ccccc4O)cc3F)c2s1`, the pIC50 was below 5.00 with A549, 5.30 to 6.00 with DU145 (setting [2]), 6.60 to 7.30 in test [1] and above 7.30 at VEGF receptor KDR.
`COc1ccccc1NC(=O)CC(=O)Nc1ccc(Oc2ccnc3cc(C4=CCCN(C)C4)sc23)c(F)c1`: the pIC50 in the test on A549 was 5.30 to 6.00; in the test on DU145 (setting [2]), 5.30 to 6.00; in test [1], 6.60 to 7.30; at VEGF receptor KDR it was 6.30 to 6.60.
As to `COCn1cnc(-c2cc3nccc(Oc4ccc(NC(=O)CC(=O)Nc5ccccc5OC)cc4F)c3s2)c1`, the negative logarithm of the IC50 (pIC50) with A549 is 5.30 to 6.00; in the test on DU145 (setting [2]), above 6.00; in test [1] it was 6.60 to 7.30; on VEGF receptor KDR it was above 7.30.
Turning to `COc1ccccc1NC(=O)CC(=O)Nc1ccc(Oc2ccnc3cc(-c4c[nH]cn4)sc23)c(F)c1`, the negative logarithm of the IC50 (pIC50) with A549 was above 6.00; in the test with DU145 (setting [2]), above 6.00; in test [1] it was 6.60 to 7.30; at VEGF receptor KDR, 6.60 to 7.30.
Consider `CCn1cnc(-c2cc3nccc(Oc4ccc(NC(=O)CC(=O)Nc5ccccc5O)cc4F)c3s2)c1`, for which the pIC50 in the test on A549 is 5.30 to 6.00; in the test with DU145 (setting [2]), 5.30 to 6.00; in test [1], above 7.30; on VEGF receptor KDR, above 7.30.
As to `COc1ccccc1NC(=O)CC(=O)Nc1ccc(Oc2ccnc3cc(N4CCCC4=O)sc23)c(F)c1`, the pIC50 in the test on A549 was above 6.00; in the test with DU145 (setting [2]), above 6.00; in test [1], 6.60 to 7.30; on VEGF receptor KDR, 6.60 to 7.30.
As to `CCCn1cnc(-c2cc3nccc(Oc4ccc(NC(=O)CC(=O)Nc5ccc(F)cc5)cc4F)c3s2)c1`, the negative logarithm of the IC50 (pIC50) in the test with A549 is above 6.00; in the test with DU145 (setting [2]) it was above 6.00; in test [1], above 7.30; at VEGF receptor KDR, above 7.30.
Take `COCCn1cnc(-c2cc3nccc(Oc4ccc(NC(=O)CC(=O)Nc5ccccc5)cc4F)c3s2)c1`: the pIC50 with A549 is above 6.00; with DU145 (setting [2]), above 6.00; in test [1], above 7.30; on VEGF receptor KDR, above 7.30.
For the molecule `Cn1cnc(-c2cc3nccc(Oc4ccc(NC(=O)C5(C(=O)Nc6ccccc6)CC5)cc4F)c3s2)c1`, the pIC50 is above 6.00 in the test on A549, above 6.00 with DU145 (setting [2]), above 7.30 in test [1] and above 7.30 at VEGF receptor KDR.
In the case of `CCn1cnc(-c2cc3nccc(Oc4ccc(NC(=O)CC(=O)NC5CCCCC5)cc4F)c3s2)c1`, the pIC50 is above 6.00 in the test on A549, above 6.00 in the test with DU145 (setting [2]), 6.60 to 7.30 in test [1] and above 7.30 on VEGF receptor KDR.
On to `COc1ccccc1NC(=O)CC(=O)Nc1ccc(Oc2ccnc3cc(-c4cn(CCN(C)C)cn4)sc23)c(F)c1`, for which the pIC50 was above 6.00 in the test on A549, above 6.00 in the test with DU145 (setting [2]), 6.60 to 7.30 in test [1] and above 7.30 on VEGF receptor KDR.
With `CCCn1cnc(-c2cc3nccc(Oc4ccc(NC(=O)CC(=O)Nc5cccc(F)c5)cc4F)c3s2)c1`, the pIC50 was 5.30 to 6.00 with A549, above 6.00 in the test with DU145 (setting [2]), 6.60 to 7.30 in test [1] and above 7.30 on VEGF receptor KDR.
The like results for `Cn1cnc(-c2cc3nccc(Oc4ccc(NC(=O)C5(C(=O)Nc6ccc(F)cc6)CC5)cc4F)c3s2)c1` were, in that order, above 6.00, above 6.00, above 7.30 and above 7.30.
Regarding `COc1ccccc1NC(=O)CC(=O)Nc1ccc(Oc2ccnc3cc(C(=O)NN(C)C)sc23)c(F)c1`, the negative-log IC50 (pIC50) in the test with A549 was 5.30 to 6.00; in the test on DU145 (setting [2]), 5.30 to 6.00; in test [1], 6.30 to 6.60; at VEGF receptor KDR it was below 6.30.
On to `CN(C)NC(=O)c1cc2nccc(Oc3ccc(NC(=O)CC(=O)N(C)c4ccccc4)cc3F)c2s1`, for which the pIC50 in the test with A549 is below 5.00; in the test on DU145 (setting [2]) it was below 5.00; in test [1], 6.30 to 6.60; on VEGF receptor KDR, below 6.30.
Consider `CN(C(=O)CC(=O)Nc1ccc(Oc2ccnc3cc(-c4cn(C)cn4)sc23)c(F)c1)c1ccccc1`, for which the pIC50 with A549 is above 6.00; in the test on DU145 (setting [2]) it was above 6.00; in test [1], 6.60 to 7.30; on VEGF receptor KDR, above 7.30.
`CCn1cc(-c2cc3nccc(Oc4ccc(NC(=O)CC(=O)Nc5ccccc5OC)cc4F)c3s2)nc1C`: the pIC50 in the test on A549 was above 6.00; with DU145 (setting [2]) it was above 6.00; in test [1], 6.60 to 7.30; at VEGF receptor KDR, above 7.30.
`O=C(CC(=O)Nc1ccc(Oc2ccnc3cc(-c4cn(CCO)cn4)sc23)c(F)c1)Nc1ccccc1`: the pIC50 was above 6.00 in the test with A549, above 6.00 with DU145 (setting [2]), above 7.30 in test [1] and above 7.30 on VEGF receptor KDR.
On to `Cn1cnc(-c2cc3nccc(Oc4ccc(NC(=O)C5(C(=O)Nc6ccccc6F)CC5)cc4F)c3s2)c1`, for which the pIC50 in the test with A549 is 5.30 to 6.00; with DU145 (setting [2]) it was above 6.00; in test [1], above 7.30; at VEGF receptor KDR, above 7.30.
In the case of `COc1ccc(NC(=O)C2(C(=O)Nc3ccc(Oc4ccnc5cc(-c6cn(C)cn6)sc45)c(F)c3)CC2)cc1`, the pIC50 in the test on A549 was 5.30 to 6.00; with DU145 (setting [2]), 5.30 to 6.00; in test [1], 6.60 to 7.30; on VEGF receptor KDR, above 7.30.
Take `CCn1cnc(-c2cc3nccc(Oc4ccc(NC(=O)C5(C(=O)Nc6ccccc6F)CC5)cc4F)c3s2)c1`: the pIC50 with A549 was above 6.00; in the test on DU145 (setting [2]) it was above 6.00; in test [1] it was above 7.30; on VEGF receptor KDR it was above 7.30.
For `COc1ccccc1NC(=O)CC(=O)Nc1ccc(Oc2ccnc3cc(-c4ccc(OCCCN(C)C)nc4)sc23)c(F)c1`, the pIC50 was 5.30 to 6.00 in the test with A549, 5.30 to 6.00 in the test with DU145 (setting [2]), 6.60 to 7.30 in test [1] and 6.30 to 6.60 at VEGF receptor KDR.
Consider `CN(C)CCn1cnc(-c2cc3nccc(Oc4ccc(NC(=O)CC(=O)N(C)c5ccccc5)cc4F)c3s2)c1`, for which the pIC50 in the test with A549 is above 6.00; in the test on DU145 (setting [2]), above 6.00; in test [1], above 7.30; on VEGF receptor KDR, above 7.30.
For the molecule `CN(C)CCn1cnc(-c2cc3nccc(Oc4ccc(NC(=O)C5(C(=O)Nc6ccccc6)CC5)cc4F)c3s2)c1`, the pIC50 in the test on A549 was above 6.00; with DU145 (setting [2]), above 6.00; in test [1], above 7.30; on VEGF receptor KDR, above 7.30.
`COc1ccccc1NC(=O)CC(=O)Nc1ccc(Oc2ccnc3cc(-c4cnc(N5CCOCC5)nc4)sc23)c(F)c1`: the pIC50 is below 5.00 with A549, below 5.00 with DU145 (setting [2]), below 6.30 in test [1] and below 6.30 on VEGF receptor KDR.
Take `CN(C(=O)CC(=O)Nc1ccc(Oc2ccnc3cc(C(=O)N(C)N(C)C)sc23)c(F)c1)c1ccccc1`: the pIC50 in the test with A549 is below 5.00; with DU145 (setting [2]), below 5.00; in test [1], 6.30 to 6.60; on VEGF receptor KDR it was below 6.30.
For the molecule `CN(C)CCn1cnc(-c2cc3nccc(Oc4ccc(NC(=O)C5(C(=O)Nc6ccccc6F)CC5)cc4F)c3s2)c1`, the pIC50 in the test with A549 is above 6.00; in the test on DU145 (setting [2]), above 6.00; in test [1], above 7.30; at VEGF receptor KDR, above 7.30.
For the molecule `CCn1cc(-c2cc3nccc(Oc4ccc(NC(=O)CC(=O)Nc5ccccc5OC)cc4F)c3s2)nc1CN(C)C`, the pIC50 in the test with A549 is above 6.00; with DU145 (setting [2]), above 6.00; in test [1], above 7.30; on VEGF receptor KDR, above 7.30.
For `Cn1cnc(-c2cc3nccc(Oc4ccc(NC(=O)N5CCN(c6ccccc6)C5=O)cc4F)c3s2)c1`, the figures for the pIC50 with A549, with DU145 (setting [3]) and at VEGF receptor KDR were above 6.00, above 6.00 and above 7.30, respectively.
With `CN(c1ccc(NC(=O)C2(C(=O)Nc3ccccc3)CC2)cc1F)c1ccnc2cc(-c3cn(C)cn3)sc12`, the figures for the pIC50 (in the test on A549; in the test with DU145 (setting [2]); in test [1]) were 5.30 to 6.00, above 6.00 and 6.60 to 7.30, respectively.
As to `Cn1cnc(-c2cc3nccc(Oc4ccc(NC(=O)CC(Nc5ccccc5)C(F)(F)F)cc4F)c3s2)c1` (centres unmarked), the pIC50 in the test with A549 was 5.30 to 6.00; in the test with DU145 (setting [3]), 5.30 to 6.00; at VEGF receptor KDR, 6.60 to 7.30.
`Cn1cnc(-c2cc3nccc(Oc4ccc(NC(CC(=O)Nc5ccccc5)C(F)(F)F)cc4F)c3s2)c1` (centres unmarked): the pIC50 is 5.30 to 6.00 in the test on A549, 5.30 to 6.00 in the test with DU145 (setting [3]) and above 7.30 on VEGF receptor KDR.
